Test system: patients after acute myocardial infarction
Assay: Angina pectoris score, total and single (frequency/attack times, duration, pain degree, dose of nitroglycerin), same clinical trial
Type: in vivo, human
Parameters: total angina pectoris score, Md / total angina pectoris score, Mean: scale not given here
Conditions: for patients with change of dose of nitroglycerin score −6 (%) / distribution of total angina pectoris score: Medium, number of patients / distribution of total angina pectoris score: Medium, percentage of patients / distribution of total angina pectoris score: Mild, number of patients / distribution of total angina pectoris score: Mild, percentage of patients / distribution of total angina pectoris score: Severe, number of patients / distribution of total angina pectoris score: Severe, percentage of patients / patients with dose of nitroglycerin score 0 (%) / patients with dose of nitroglycerin score 1 (%) / patients with dose of nitroglycerin score 2 (%) / patients with dose of nitroglycerin score 4 (%) / patients with dose of nitroglycerin score 6 (%) / total angina pectoris score, Md / total angina pectoris score, Mean / change of total angina pectoris score, Md / change of total angina pectoris score, Mean / patients with change of dose of nitroglycerin score 0 (%) / patients with change of dose of nitroglycerin score 1 (%) / patients with change of dose of nitroglycerin score 2 (%) / patients with change of dose of nitroglycerin score 4 (%) / patients with change of dose of nitroglycerin score 6 (%) / patients with change of dose of nitroglycerin score −1 (%) / patients with change of dose of nitroglycerin score −2 (%) / patients with change of dose of nitroglycerin score −3 (%) / patients with change of dose of nitroglycerin score −4 (%) / patients with change of dose of nitroglycerin score −5 (%): PP; for attack times score, patients (%): month after treatment
From the text: In order to better understand the present invention, a multi-center, randomized, double-blind, double-dummy and positive drug controlled trial had been conducted. 3508 patients who were in accordance with the diagnostic standards of AMI for 28 days to 2 years and differentiated as Qi deficiency and blood stagnation syndrome by TCM were studied. 0.5 g Chinese medicine composition prepared by the method of EXAMPLE 1 (Coded as QSYQ) was administrated half an hour after meal, 3 times per day. Aspirine was used as a positive drug. The patients were treated for 1 year and observed for 6 months.
They included the overall survival time, angina pectoris score, TCM symptom score and life quality score, where angina pectoris score, TCM symptom score and life quality score were evaluated at randomization, in 1st, 3rd, 6th, 9th, 12th month after treatment and 18th month after follow-up.
Total angina pectoris score was described on every observation period and the change of observation in comparison with baseline. T-test or Wilcoxon rank sum test were used for inter-group comparison. Grade of total score was evaluated on every observation and Wilcoxon rank sum test was used for inter-group comparison. T-test and Pairing signed rank sum test were used for analyzing the change of total score on every observation between groups in comparison with the baseline.
Single angina pectoris score was depicted on every observation time-point and the change of observation in comparison with baseline. Wilcoxon rank sum test was used for inter-group comparison. Pairing signed rank sum test was used for analyzing the change of total score on every observation between groups in comparison with the baseline.
Total angina pectoris score was described on every observation period and the change of observation in comparison with the baseline. T-test or Wilcoxon rank sum test were used for inter-group comparison. Grade of total score was evaluated on every observation and Wilcoxon rank sum test was used for inter-group comparison. T-test and Pairing signed rank sum test were used for analyzing the change of total score on every observation between groups in comparison with the baseline.
Single angina pectoris score was described on every observation time-point and the change of observation in comparison with baseline. Wilcoxon rank sum test was used for inter-group comparison. Pairing signed rank sum test was used for analyzing the change of total score on every observation between groups in comparison with the baseline.

[1] = 6 months after treatment-baseline
[2] = 9 months after treatment-baseline
[3] = 12 months after treatment-baseline

CC(=O)Oc1ccccc1C(=O)O [Control group, aspirine]
patients with change of dose of nitroglycerin score −6 (%) (3 months after treatment-baseline): (0.68%)
distribution of total angina pectoris score: Medium, number of patients (6 months after treatment): 278
distribution of total angina pectoris score: Medium, percentage of patients (6 months after treatment): (19.08%)
distribution of total angina pectoris score: Mild, number of patients (6 months after treatment): 1172
distribution of total angina pectoris score: Mild, percentage of patients (6 months after treatment): (80.44%)
distribution of total angina pectoris score: Severe, number of patients (6 months after treatment): 7
distribution of total angina pectoris score: Severe, percentage of patients (6 months after treatment): (0.48%)
patients with dose of nitroglycerin score 0 (%) (6 months after treatment): (67.13%)
patients with dose of nitroglycerin score 1 (%) (6 months after treatment): (1.03%)
patients with dose of nitroglycerin score 2 (%) (6 months after treatment): (27.85%)
patients with dose of nitroglycerin score 4 (%) (6 months after treatment): (2.75%)
patients with dose of nitroglycerin score 6 (%) (6 months after treatment): (1.24%)
total angina pectoris score, Md (6 months after treatment): 5.00
total angina pectoris score, Mean (6 months after treatment): 4.54
change of total angina pectoris score, Md [1]: −1.00
change of total angina pectoris score, Mean [1]: −2.58
patients with change of dose of nitroglycerin score 0 (%) [1]: (69.47%)
patients with change of dose of nitroglycerin score 1 (%) [1]: (0.48%)
patients with change of dose of nitroglycerin score 2 (%) [1]: (4.14%)
patients with change of dose of nitroglycerin score 4 (%) [1]: (0.28%)
patients with change of dose of nitroglycerin score 6 (%) [1]: (0.28%)
patients with change of dose of nitroglycerin score −1 (%) [1]: (0.28%)
patients with change of dose of nitroglycerin score −2 (%) [1]: (19.43%)
patients with change of dose of nitroglycerin score −3 (%) [1]: (0.00%)
patients with change of dose of nitroglycerin score −4 (%) [1]: (4.41%)
patients with change of dose of nitroglycerin score −5 (%) [1]: (0.21%)
patients with change of dose of nitroglycerin score −6 (%) [1]: (1.03%)
distribution of total angina pectoris score: Medium, number of patients (9 months after treatment): 233
distribution of total angina pectoris score: Medium, percentage of patients (9 months after treatment): (16.15%)
distribution of total angina pectoris score: Mild, number of patients (9 months after treatment): 1207
distribution of total angina pectoris score: Mild, percentage of patients (9 months after treatment): (83.65%)
distribution of total angina pectoris score: Severe, number of patients (9 months after treatment): 3
distribution of total angina pectoris score: Severe, percentage of patients (9 months after treatment): (0.21%)
patients with dose of nitroglycerin score 0 (%) (9 months after treatment): (68.96%)
patients with dose of nitroglycerin score 1 (%) (9 months after treatment): (1.25%)
patients with dose of nitroglycerin score 2 (%) (9 months after treatment): (27.43%)
patients with dose of nitroglycerin score 4 (%) (9 months after treatment): (1.39%)
patients with dose of nitroglycerin score 6 (%) (9 months after treatment): (0.97%)
total angina pectoris score, Md (9 months after treatment): 5.00
total angina pectoris score, Mean (9 months after treatment): 4.10
change of total angina pectoris score, Md [2]: −2.00
change of total angina pectoris score, Mean [2]: −3.02
patients with change of dose of nitroglycerin score 0 (%) [2]: (66.50%)
patients with change of dose of nitroglycerin score 1 (%) [2]: (0.42%)
patients with change of dose of nitroglycerin score 2 (%) [2]: (4.18%)
patients with change of dose of nitroglycerin score 4 (%) [2]: (0.28%)
patients with change of dose of nitroglycerin score 6 (%) [2]: (0.28%)
patients with change of dose of nitroglycerin score −1 (%) [2]: (0.56%)
patients with change of dose of nitroglycerin score −2 (%) [2]: (21.38%)
patients with change of dose of nitroglycerin score −3 (%) [2]: (0.14%)
patients with change of dose of nitroglycerin score −4 (%) [2]: (4.67%)
patients with change of dose of nitroglycerin score −5 (%) [2]: (0.21%)
patients with change of dose of nitroglycerin score −6 (%) [2]: (1.39%)
distribution of total angina pectoris score: Medium, number of patients (12 months after treatment): 171
distribution of total angina pectoris score: Medium, percentage of patients (12 months after treatment): (11.94%)
distribution of total angina pectoris score: Mild, number of patients (12 months after treatment): 1259
distribution of total angina pectoris score: Mild, percentage of patients (12 months after treatment): (87.92%)
distribution of total angina pectoris score: Severe, number of patients (12 months after treatment): 2
distribution of total angina pectoris score: Severe, percentage of patients (12 months after treatment): (0.14%)
patients with dose of nitroglycerin score 0 (%) (12 months after treatment): (74.81%)
patients with dose of nitroglycerin score 1 (%) (12 months after treatment): (1.33%)
patients with dose of nitroglycerin score 2 (%) (12 months after treatment): (22.18%)
patients with dose of nitroglycerin score 4 (%) (12 months after treatment): (0.91%)
patients with dose of nitroglycerin score 6 (%) (12 months after treatment): (0.77%)
total angina pectoris score, Md (12 months after treatment): 0.00
total angina pectoris score, Mean (12 months after treatment): 3.38
change of total angina pectoris score, Md [3]: −3.00
change of total angina pectoris score, Mean [3]: −3.71
patients with change of dose of nitroglycerin score 0 (%) [3]: (64.63%)
patients with change of dose of nitroglycerin score 1 (%) [3]: (0.63%)
patients with change of dose of nitroglycerin score 2 (%) [3]: (2.88%)
patients with change of dose of nitroglycerin score 4 (%) [3]: (0.07%)
patients with change of dose of nitroglycerin score 6 (%) [3]: (0.28%)
patients with change of dose of nitroglycerin score −1 (%) [3]: (0.63%)
patients with change of dose of nitroglycerin score −2 (%) [3]: (23.37%)
patients with change of dose of nitroglycerin score −3 (%) [3]: (0.07%)
patients with change of dose of nitroglycerin score −4 (%) [3]: (5.47%)
patients with change of dose of nitroglycerin score −5 (%) [3]: (0.07%)
patients with change of dose of nitroglycerin score −6 (%) [3]: (1.89%)
distribution of total angina pectoris score: Medium, number of patients (Baseline): 539
distribution of total angina pectoris score: Medium, percentage of patients (Baseline): (36.01%)
distribution of total angina pectoris score: Mild, number of patients (Baseline): 917
distribution of total angina pectoris score: Mild, percentage of patients (Baseline): (61.26%)
distribution of total angina pectoris score: Severe, number of patients (Baseline): 41
distribution of total angina pectoris score: Severe, percentage of patients (Baseline): (2.74%)
total angina pectoris score, Md (Baseline): 8.00
total angina pectoris score, Mean (Baseline): 7.20
distribution of total angina pectoris score: Medium, number of patients (Follow-up): 192
distribution of total angina pectoris score: Medium, percentage of patients (Follow-up): (13.64%)
distribution of total angina pectoris score: Mild, number of patients (Follow-up): 1215
distribution of total angina pectoris score: Mild, percentage of patients (Follow-up): (86.29%)
distribution of total angina pectoris score: Severe, number of patients (Follow-up): 1
distribution of total angina pectoris score: Severe, percentage of patients (Follow-up): (0.07%)
patients with dose of nitroglycerin score 0 (%) (Follow-up): (74.31%)
patients with dose of nitroglycerin score 1 (%) (Follow-up): (0.93%)
patients with dose of nitroglycerin score 2 (%) (Follow-up): (23.13%)
patients with dose of nitroglycerin score 4 (%) (Follow-up): (1.00%)
patients with dose of nitroglycerin score 6 (%) (Follow-up): (0.64%)
total angina pectoris score, Md (Follow-up): 0.00
total angina pectoris score, Mean (Follow-up): 3.60
change of total angina pectoris score, Md (Follow-up-baseline): −2.00
change of total angina pectoris score, Mean (Follow-up-baseline): −3.51
patients with change of dose of nitroglycerin score 0 (%) (Follow-up-baseline): (64.17%)
patients with change of dose of nitroglycerin score 1 (%) (Follow-up-baseline): (0.29%)
patients with change of dose of nitroglycerin score 2 (%) (Follow-up-baseline): (4.00%)
patients with change of dose of nitroglycerin score 4 (%) (Follow-up-baseline): (0.29%)
patients with change of dose of nitroglycerin score 6 (%) (Follow-up-baseline): (0.21%)
patients with change of dose of nitroglycerin score −1 (%) (Follow-up-baseline): (0.43%)
patients with change of dose of nitroglycerin score −2 (%) (Follow-up-baseline): (22.06%)
patients with change of dose of nitroglycerin score −3 (%) (Follow-up-baseline): (0.14%)
patients with change of dose of nitroglycerin score −4 (%) (Follow-up-baseline): (6.42%)
patients with change of dose of nitroglycerin score −5 (%) (Follow-up-baseline): (0.14%)
patients with change of dose of nitroglycerin score −6 (%) (Follow-up-baseline): (1.86%)
attack times score, patients (%) (score 0, FAS): (36.58%)
attack times score, patients (%) (score 0, PP): (36.33%)
attack times score, patients (%) (score 1, FAS): (10.72%)
attack times score, patients (%) (score 1, PP): (11.08%)
attack times score, patients (%) (score 2, FAS): (46.56%)
attack times score, patients (%) (score 2, PP): (46.88%)
attack times score, patients (%) (score 4, FAS): (6.02%)
attack times score, patients (%) (score 4, PP): (5.57%)
attack times score, patients (%) (score 6, FAS): (0.11%)
attack times score, patients (%) (score 6, PP): (0.13%)
